Measured values as given in patent USRE42890E1, “Furazanobenzimidazoles” (Basilea Pharmaceutica AG, priority 2003, dated 2011).

How the values were obtained:
Jurkat = experiment: MTS proliferation assay, Jurkat; format: cell-based, human; details: 72 h incubation, read-out: MTS proliferation assay IC 50 Jurkat
Procedure, shortened: (§1)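 Absorbance at 492 nm after 3 h with MTS reagent gave the proliferation read-out. Before that, cells in RPMI-1640 complete medium (5% or 10% FCS) were treated 72 h with compound at four final concentrations, 0.3 to 10 μM.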

Jily = experiment: MTS proliferation assay, Jily; format: cell-based; details: 72 h incubation, read-out: MTS proliferation assay IC 50 Jily
Procedure, shortened: (§2)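 Read-out: MTS absorbance at 492 nm after 3 h reagent incubation. Before that, cells grew 72 h at 37° C/7.5% CO2 with test compounds at final concentrations of 10 μM, 3 μM, 1 μM and 0.3 μM, added 24 h post-seeding.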

HT1080 = experiment: MTS proliferation assay, HT1080; format: cell-based, human; details: HT1080, 72 h incubation; read-out: MTS proliferation assay IC 50 HT1080
Procedure, shortened: as §1

HeLa = experiment: MTS proliferation assay, HeLa; format: cell-based, human; details: 72 h incubation, read-out: MTS proliferation assay IC 50 HeLa
Procedure, shortened: as §1

MRC5 = experiment: MTS proliferation assay, MRC5; format: cell-based; details: MRC5, 72 h incubation; read-out: MTS proliferation assay IC 50 MRC5
Procedure, shortened: as §2

[1] = test system: adherent cells or suspension cells; experiment: Hoechst 33342 nuclear staining (fraction of apoptotic nuclei); format: cell-based; parameters: key: 0 relating to no activity; 1 relating to weak activity comprising less than 70% of the cells; score 2 relating to strong activity comprising more than 70% of the cells

SMILES	IC50 (Jurkat) [nM]	IC50 (HT1080) [nM]	IC50 (HeLa) [nM]	IC50 (Jily) [nM]	IC50 (MRC5) [nM]	Hoechst 33342 nuclear staining score ([1]; H460, conc 0.01 μm)	Hoechst 33342 nuclear staining score ([1]; H460, conc 0.1 μm)	Hoechst 33342 nuclear staining score ([1]; H460, conc 1 μm)	Hoechst 33342 nuclear staining score ([1]; HeLa, conc 0.01 μm)	Hoechst 33342 nuclear staining score ([1]; HeLa, conc 0.1 μm)	Hoechst 33342 nuclear staining score ([1]; HeLa, conc 1 μm)	Hoechst 33342 nuclear staining score ([1]; Jily, conc 0.01 μm)	Hoechst 33342 nuclear staining score ([1]; Jurkat, conc 0.01 μm)	Hoechst 33342 nuclear staining score ([1]; Jurkat, conc 0.1 μm)	Hoechst 33342 nuclear staining score ([1]; Jurkat, conc 1 μm)	Hoechst 33342 nuclear staining score ([1]; MRC5, conc 0.01 μm)	Hoechst 33342 nuclear staining score ([1]; MRC5, conc 0.1 μm)	Hoechst 33342 nuclear staining score ([1]; PBLs, conc 0.01 μm)	Hoechst 33342 nuclear staining score ([1]; PBLs, conc 0.1 μm)	Hoechst 33342 nuclear staining score ([1]; PBLs, conc 1 μm)	also measured
Nc1nonc1-c1nc2ccccc2n1COc1ccc(C=O)cc1 [Example 96]	100 to 1000	100 to 1000	100 to 1000	100 to 1000	100 to 1000	0	0	1 (1 relating to weak activity comprising less than 70% of the cells)	0	0	2 (score 2 relating to strong activity comprising more than 70% of the cells)	0	0	0	2 (score 2 relating to strong activity comprising more than 70% of the cells)	0	0	0	0	0	Hoechst 33342 nuclear staining score ([1]; Jily, conc 0.1 μm): 0; Hoechst 33342 nuclear staining score ([1]; Jily, conc 1 μm): 2 (score 2 relating to strong activity comprising more than 70% of the cells); Hoechst 33342 nuclear staining score ([1]; MRC5, conc 1 μm): 0
N#CCCNc1nonc1-c1nc2ccccc2n1COc1ccccc1 [Example 95]	100 to 1000	100 to 1000	100 to 1000	100 to 1000	100 to 1000	–	–	–	0	0	1 (1 relating to weak activity comprising less than 70% of the cells)	0	0	0	2 (score 2 relating to strong activity comprising more than 70% of the cells)	0	0	0	0	0	Hoechst 33342 nuclear staining score ([1]; Jily, conc 0.1 μm): 0; Hoechst 33342 nuclear staining score ([1]; Jily, conc 1 μm): 1 (1 relating to weak activity comprising less than 70% of the cells); Hoechst 33342 nuclear staining score ([1]; MRC5, conc 1 μm): 0
Cc1ccc(/C=C/C(=O)Cn2c(-c3nonc3N)nc3ccccc32)cc1 [Example 119]	> 1000	> 1000	> 1000	> 1000	> 1000	0	0	0	0	0	0	0	0	0	0	0	0	0	0	0	Hoechst 33342 nuclear staining score ([1]; Jily, conc 0.1 μm): 0; Hoechst 33342 nuclear staining score ([1]; Jily, conc 1 μm): 0; Hoechst 33342 nuclear staining score ([1]; MRC5, conc 1 μm): 0
COc1ccc(C(=O)Cn2c(-c3nonc3NCCC#N)nc3ccccc32)cc1 [Example 48]	< 10	10 to 100	10 to 100	10 to 100	10 to 100	0	0	2 (score 2 relating to strong activity comprising more than 70% of the cells)	0	2 (score 2 relating to strong activity comprising more than 70% of the cells)	2 (score 2 relating to strong activity comprising more than 70% of the cells)	0	0	2 (score 2 relating to strong activity comprising more than 70% of the cells)	2 (score 2 relating to strong activity comprising more than 70% of the cells)	0	2 (score 2 relating to strong activity comprising more than 70% of the cells)	0	0	0	Hoechst 33342 nuclear staining score ([1]; Jily, conc 0.1 μm): 2 (score 2 relating to strong activity comprising more than 70% of the cells); Hoechst 33342 nuclear staining score ([1]; Jily, conc 1 μm): 2 (score 2 relating to strong activity comprising more than 70% of the cells); Hoechst 33342 nuclear staining score ([1]; MRC5, conc 1 μm): 2 (score 2 relating to strong activity comprising more than 70% of the cells)

Further lines, with some results ahead:

IC50 (Jurkat) [nM]	IC50 (HT1080) [nM]	IC50 (HeLa) [nM]	SMILES	IC50 (Jily) [nM]	IC50 (MRC5) [nM]	Hoechst 33342 nuclear staining score ([1]; H460, conc 0.01 μm)	Hoechst 33342 nuclear staining score ([1]; H460, conc 0.1 μm)	Hoechst 33342 nuclear staining score ([1]; H460, conc 1 μm)	Hoechst 33342 nuclear staining score ([1]; HeLa, conc 0.01 μm)	Hoechst 33342 nuclear staining score ([1]; HeLa, conc 0.1 μm)	Hoechst 33342 nuclear staining score ([1]; HeLa, conc 1 μm)	Hoechst 33342 nuclear staining score ([1]; Jily, conc 0.01 μm)	Hoechst 33342 nuclear staining score ([1]; Jurkat, conc 0.01 μm)	Hoechst 33342 nuclear staining score ([1]; Jurkat, conc 0.1 μm)	Hoechst 33342 nuclear staining score ([1]; Jurkat, conc 1 μm)	Hoechst 33342 nuclear staining score ([1]; MRC5, conc 0.01 μm)	Hoechst 33342 nuclear staining score ([1]; MRC5, conc 0.1 μm)	Hoechst 33342 nuclear staining score ([1]; PBLs, conc 0.01 μm)	Hoechst 33342 nuclear staining score ([1]; PBLs, conc 0.1 μm)	Hoechst 33342 nuclear staining score ([1]; PBLs, conc 1 μm)	also measured
100 to 1000	100 to 1000	100 to 1000	Nc1nonc1-c1nc2ccccc2n1CC(=O)c1ccccn1 [Example 59]	100 to 1000	100 to 1000	0	0	2 (score 2 relating to strong activity comprising more than 70% of the cells)	0	0	2 (score 2 relating to strong activity comprising more than 70% of the cells)	0	0	0	2 (score 2 relating to strong activity comprising more than 70% of the cells)	0	0	0	0	0	Hoechst 33342 nuclear staining score ([1]; Jily, conc 0.1 μm): 0; Hoechst 33342 nuclear staining score ([1]; Jily, conc 1 μm): 2 (score 2 relating to strong activity comprising more than 70% of the cells); Hoechst 33342 nuclear staining score ([1]; MRC5, conc 1 μm): 2 (score 2 relating to strong activity comprising more than 70% of the cells)
100 to 1000	100 to 1000	100 to 1000	COc1ccc(C(=O)Cn2c(-c3nonc3N)nc3ccccc32)cc1OC [Example 76]	10 to 100	100 to 1000	0	1 (1 relating to weak activity comprising less than 70% of the cells)	2 (score 2 relating to strong activity comprising more than 70% of the cells)	0	0	2 (score 2 relating to strong activity comprising more than 70% of the cells)	0	0	2 (score 2 relating to strong activity comprising more than 70% of the cells)	2 (score 2 relating to strong activity comprising more than 70% of the cells)	0	0	0	0	0	Hoechst 33342 nuclear staining score ([1]; Jily, conc 0.1 μm): 2 (score 2 relating to strong activity comprising more than 70% of the cells); Hoechst 33342 nuclear staining score ([1]; Jily, conc 1 μm): 2 (score 2 relating to strong activity comprising more than 70% of the cells)
100 to 1000	> 1000	100 to 1000	Nc1nonc1-c1nc2ccccc2n1CC(=O)c1ccc(Cl)cc1Cl [Example 31]	100 to 1000	100 to 1000	0	0	0	0	0	0	–	0	0	1 (1 relating to weak activity comprising less than 70% of the cells)	0	0	0	0	0	Hoechst 33342 nuclear staining score ([1]; MRC5, conc 1 μm): 0
